Measurements: patent publication US20240124431A1, “2,3-DIHYDRO-4H-BENZO[B][1,4]OXAZIN-4-YL)(5-(PHENYL)-PYRIDIN-3-YL)METHANONE DERIVATIVES AND SIMILAR COMPOUNDS AS CYP11A1 INHIBITORS FOR THE TREATMENT OF PROSTATE CANCER” (ORION CORPORATION, priority 2020, published 2024)

Target: T1, CYP11A1 (Homo sapiens, UniProt P05108)
T1 construct: endogenous in cells; host or cells: NCI-H295R
T1 sequence (P05108 40-521): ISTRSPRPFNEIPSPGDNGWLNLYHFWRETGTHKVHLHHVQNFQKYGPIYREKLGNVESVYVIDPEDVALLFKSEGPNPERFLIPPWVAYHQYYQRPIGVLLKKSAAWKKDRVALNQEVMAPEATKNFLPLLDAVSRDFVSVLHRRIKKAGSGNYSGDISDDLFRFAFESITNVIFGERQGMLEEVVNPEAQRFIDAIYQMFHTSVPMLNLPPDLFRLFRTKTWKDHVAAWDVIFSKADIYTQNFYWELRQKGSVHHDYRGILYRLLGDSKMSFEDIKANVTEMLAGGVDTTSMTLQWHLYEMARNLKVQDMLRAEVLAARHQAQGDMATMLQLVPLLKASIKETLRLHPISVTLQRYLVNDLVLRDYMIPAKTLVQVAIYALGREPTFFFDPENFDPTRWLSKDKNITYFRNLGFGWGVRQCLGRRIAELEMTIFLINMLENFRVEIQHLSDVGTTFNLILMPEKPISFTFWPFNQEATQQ
Assay: CYP11A1 inhibition: pregnenolone biosynthesis measured by ELISA in NCI-H295R cells
Type: cell-based
Conditions: NCI-H295R cells treated for 24 hours, 10 concentrations in duplicates, read-out: IC50 on CYP11A1 inhibition (Group)
Experimental: The ability of the test compounds to inhibit pregnenolone biosynthesis was measured by enzyme-linked immunosorbent assay (ELISA) detecting pregnenolone (Abnova Pregnenolone ELISA Kit, KA1912). […] To determine the half maximal inhibitory concentration (IC50) of the test compounds on CYP11A1 inhibition, the cells were treated for 24 hours with increasing concentrations of the test compound. The final DMSO concentration was 0.4%. Medium samples were diluted 1:6 and pregnenolone amounts determined with ELISA. Manufacturer's recommended protocols were used and pregnenolone (Sigma-Aldrich, P9129) standards were prepared in cell culture medium. Absorbance (A450) was measured with Envision plate reader (PerkinElmer). All the test compounds were studied at 10 concentrations in duplicates.

Row | SMILES | IC50
1 | Cc1c(C(=O)N2CCCc3ccccc32)cncc1-c1ccccc1 [Compound 4, (3,4-Dihydroquinolin-1(2H)-yl)(4-methyl-5-phenylpyridin-3-yl)methanone] | 0.051 to 0.2 µM
2 | O=C(c1cncc(-c2ccc(F)cc2)c1)N1CCc2ccccc21 [Compound 60, (5-(4-Fluorophenyl)pyridin-3-yl)(indolin-1-yl)methanone] | 0.201 to 2.5 µM
3 | O=C(c1cncc(N2CCCC2)c1)N1CCOc2ccccc21 [Compound 74, (2,3-Dihydro-4H-benzo[b][1,4]oxazin-4-yl)(5-(pyrrolidin-1-yl)pyridin-3-yl)-methanone] | 0.201 to 2.5 µM
4 | O=C(c1cncc(-c2ccc(F)nc2)c1)N1CCOc2ccccc21 [Compound 49, (2,3-Dihydro-4H-benzo[b][1,4]oxazin-4-yl)(6′-fluoro-[3,3′-bipyridin]-5-yl)-methanone] | 0.051 to 0.2 µM
5 | O=C(c1cncc(N2CCCC2)n1)N1CCOc2ccccc21 [Compound 76, (2,3-dihydro-4H-benzo[b][1,4]oxazin-4-yl)(6-(pyrrolidin-1-yl)pyrazin-2-yl)-methanone] | 0.201 to 2.5 µM
6 | O=C(c1cncc(-n2cccc2)c1)N1CCCc2ccccc21 [Compound 39, (5-(1H-Pyrrol-1-yl)pyridin-3-yl)(3,4-dihydroquinolin-1(2H)-yl)methanone] | < 0.05 µM
7 | Cc1cn(-c2cncc(C(=O)N3CCCc4ccccc43)c2)cn1 [Compound 82, (3,4-Dihydroquinolin-1(2H)-yl)(5-(4-methyl-1H-imidazol-1-yl)pyridin-3-yl)-methanone] | 0.201 to 2.5 µM
8 | O=C(c1cncc(-c2ccc3c(c2)OCC3)n1)N1CCCc2ccccc21 [Compound 12, (6-(2,3-Dihydrobenzofuran-6-yl)pyrazin-2-yl)(3,4-dihydroquinolin-1(2H)-yl)-methanone] | < 0.05 µM
9 | O=C(c1cncc(-c2ccccc2)c1)N1CCCc2ncccc21 [Compound 61, (3,4-Dihydro-1,5-naphthyridin-1(2H)-yl)(5-phenylpyridin-3-yl)methanone] | 0.201 to 2.5 µM
10 | O=C(c1cncc(-c2ccc3ncoc3c2)n1)N1CCOc2ccccc21 [Compound 8, (6-(Benzo[d]oxazol-6-yl)pyrazin-2-yl)(2,3-dihydro-4H-benzo[b][1,4]oxazin-4-yl)methanone] | < 0.05 µM
11 | Cc1cnn(-c2cncc(C(=O)N3CCCc4ccccc43)n2)c1 [Compound 84, (3,4-Dihydroquinolin-1(2H)-yl)(6-(4-methyl-1H-pyrazol-1-yl)pyrazin-2-yl)-methanone] | < 0.05 µM
12 | CN1CCN(C(=O)c2cncc(-c3ccc(F)cc3)c2)c2ccccc21 [Compound 31, (5-(4-Fluorophenyl)pyridin-3-yl)(4-methyl-3,4-dihydroquinoxalin-1(2H)-yl)-methanone] | < 0.05 µM
13 | Cn1cc(-c2cncc(C(=O)N3CCOc4ccccc43)c2)cn1 [Compound 73, (2,3-Dihydro-4H-benzo[b][1,4]oxazin-4-yl)(5-(1-methyl-1H-pyrazol-4-yl)-pyridin-3-yl)methanone] | 0.201 to 2.5 µM
14 | O=C(c1cncc(-c2ccc3c(c2)OCC3)c1)N1CCOC2CCCCC21 (stereo not drawn) [Compound 72, (5-(2,3-Dihydrobenzofuran-6-yl)pyridin-3-yl)(octahydro-4H-benzo[b][1,4]-oxazin-4-yl)methanone] | 0.201 to 2.5 µM
15 | Cn1cc(-c2cncc(C(=O)N3CCOc4ccccc43)n2)cn1 [Compound 43, (2,3-Dihydro-4H-benzo[b][1,4]oxazin-4-yl)(6-(1-methyl-1H-pyrazol-4-yl)-pyrazin-2-yl)methanone] | 0.051 to 0.2 µM
16 | O=C(c1cncc(-c2ccc(CO)cc2)c1)N1CCCc2ccccc21 [Compound 54, (3,4-Dihydroquinolin-1(2H)-yl)(5-(4-(hydroxymethyl)phenyl)pyridin-3-yl)-methanone] | 0.051 to 0.2 µM
17 | O=C(c1cncc(-c2ccccc2)c1)N1CCOc2ccccc21 [Compound 10, (2,3-Dihydro-4H-benzo[b][1,4]oxazin-4-yl)(5-phenylpyridin-3-yl)methanone] | < 0.05 µM
18 | O=C(c1cncc(-c2ccc(F)c([N+](=O)[O-])c2)c1)N1CCOc2ccccc21 [Compound 58, (2,3-Dihydro-4H-benzo[b][1,4]oxazin-4-yl)(5-(4-fluoro-3-nitrophenyl)pyridin-3-yl)methanone] | 0.201 to 2.5 µM
